Results: PubChem BioAssay (NCI)
“And” between values parts separate entries of the source, which are not always exact repeats. Identical values can stand only once.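 Five concentrations, 48 hours, 96-well plates. GI50: concentration for 50% inhibition of growth. TGI marks complete inhibition of growth.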

Experiments:
Assay in all cases: NCI tumour cell line growth inhibition, 48 h
[1] = system: RXF-631 renal
[2] = system: KM20L2 colon
[3] = system: SNB-78 CNS
[4] = system: M19-MEL melanoma
[5] = system: XF 498 CNS
[6] = system: LXFL 529 NSCLC
[7] = system: P388 leukemia
[8] = system: MDA-MB-435
[9] = system: P388/ADR leukemia
[10] = system: MDA-N
[11] = system: BT-549 breast

| SMILES | TGI [1] | TGI [2] | TGI [3] | TGI [4] | TGI [5] | TGI [6] | GI50 [1] | GI50 [2] | GI50 [3] | GI50 [4] | GI50 [5] | GI50 [6] | TGI [7] | TGI [8] | TGI [9] | GI50 [10] | TGI [10] | GI50 [11] | TGI [11] |
| --- | --- | --- | --- | --- | --- | --- | --- | --- | --- | --- | --- | --- | --- | --- | --- | --- | --- | --- | --- |
| Cc1nc(NC(=S)NC(=O)c2ccc(Cl)c(Cl)c2)sc1C(=O)/C=C/c1ccccc1[N+](=O)[O-] | 56 µM | 35.9 µM | 91.2 µM | 79.7 µM | 35.9 µM | 74.3 µM |  |  |  |  |  |  |  |  |  |  |  |  |  |
| O=C1c2ccccc2C(=O)N1/N=C\c1ccc(Br)cc1 | > 100 µM | > 100 µM | > 100 µM | > 100 µM | > 100 µM | > 100 µM | > 100 µM | > 100 µM | > 100 µM | > 100 µM | > 100 µM | > 100 µM |  |  |  |  |  |  |  |
| CCCC(OCC)(OCC)OCC | > 100 µM | > 100 µM | > 100 µM | > 100 µM | > 100 µM | > 100 µM |  |  |  |  |  |  |  |  |  |  |  |  |  |
| C=C(C)C(=O)NC(N)=NC#N |  | 232 µM | 398 µM | 50.2 µM and 166 µM | > 96.6 µM and 303 µM | 191 µM |  |  | 167 µM | 42.8 µM | 126 µM |  | 13.9 µM | 259 µM | 27.7 µM | 96.8 µM | 216 µM | 67.9 µM | 28.4 µM and 192 µM |
| CSc1ccc(-c2cn3ccsc3n2)c(O)c1 | > 100 µM | > 100 µM | > 100 µM |  | > 100 µM | > 82.2 µM |  |  |  |  |  |  |  |  |  |  |  |  |  |
| CN1CCC23c4c5ccc(O)c4OC2C(=NN=C2CCC4(O)C6Cc7ccc(O)c8c7C4(CCN6C)C2O8)CCC3(O)C1C5 (stereo not given) | > 100 µM | > 100 µM |  | > 100 µM | > 100 µM | > 100 µM |  |  |  |  |  |  |  |  |  |  |  |  |  |
| COc1cccc(/C=C(/C(=O)O)c2cc(OC)c(OC)c(OC)c2)c1 | > 100 µM | > 100 µM | > 100 µM | > 100 µM | > 100 µM | > 100 µM |  |  |  |  |  |  |  |  |  |  |  |  |  |
| CC1(C)CC23C(=O)N(c4ccccc4)C(=Nc4ccccc4)NC2=CC(C#N)=C(C#N)C3O1 (stereo not given) | > 100 µM | > 100 µM | > 100 µM | > 100 µM | > 100 µM | > 100 µM |  |  |  |  |  |  |  |  |  |  |  |  |  |
| CCOC(=O)C1Cc2c(ccc(OC)c2OC)C(=O)C1N (stereo not given) | > 100 µM | > 100 µM | > 100 µM | > 100 µM | > 100 µM | > 100 µM |  |  |  |  |  |  |  |  |  |  |  |  |  |
| C[C@]12CCC[C@H](OC=O)C1(O)C[C@H](C(=O)O)CC2 (stereo not given in full) | > 100 µM | 35.2 µM | > 100 µM | > 100 µM | > 100 µM | > 100 µM |  |  |  |  |  |  |  |  |  |  |  |  |  |
| CC[O-].CC[O-].[O-]c1ccccc1C=Nc1ccccc1.[O-]c1ccccc1C=Nc1ccccc1.[Ti+4] | > 100 µM | > 100 µM | > 100 µM | > 100 µM | > 100 µM | > 100 µM | > 100 µM | 23.7 µM | > 100 µM | > 100 µM | > 100 µM | 2.94 µM |  |  |  |  |  |  |  |
